Results on ten compounds are retold here after ChEMBL document CHEMBL2407010, “Nitric oxide donating anilinopyrimidines: synthesis and biological evaluation as EGFR inhibitors” (Eur J Med Chem, 2013).

Calls of active or inactive are those of the source. No cut-off for these calls is given here.

In assay [1] the target is T1, Epidermal growth factor receptor (Homo sapiens, UniProt P00533). Kind of assay: Inhibition of wild type EGFR (unknown origin) using Tyr 4 peptide as substrate after 1.5 hrs by FRET based Z'-lyte assay.
T1 sequence (P00533 whole entry): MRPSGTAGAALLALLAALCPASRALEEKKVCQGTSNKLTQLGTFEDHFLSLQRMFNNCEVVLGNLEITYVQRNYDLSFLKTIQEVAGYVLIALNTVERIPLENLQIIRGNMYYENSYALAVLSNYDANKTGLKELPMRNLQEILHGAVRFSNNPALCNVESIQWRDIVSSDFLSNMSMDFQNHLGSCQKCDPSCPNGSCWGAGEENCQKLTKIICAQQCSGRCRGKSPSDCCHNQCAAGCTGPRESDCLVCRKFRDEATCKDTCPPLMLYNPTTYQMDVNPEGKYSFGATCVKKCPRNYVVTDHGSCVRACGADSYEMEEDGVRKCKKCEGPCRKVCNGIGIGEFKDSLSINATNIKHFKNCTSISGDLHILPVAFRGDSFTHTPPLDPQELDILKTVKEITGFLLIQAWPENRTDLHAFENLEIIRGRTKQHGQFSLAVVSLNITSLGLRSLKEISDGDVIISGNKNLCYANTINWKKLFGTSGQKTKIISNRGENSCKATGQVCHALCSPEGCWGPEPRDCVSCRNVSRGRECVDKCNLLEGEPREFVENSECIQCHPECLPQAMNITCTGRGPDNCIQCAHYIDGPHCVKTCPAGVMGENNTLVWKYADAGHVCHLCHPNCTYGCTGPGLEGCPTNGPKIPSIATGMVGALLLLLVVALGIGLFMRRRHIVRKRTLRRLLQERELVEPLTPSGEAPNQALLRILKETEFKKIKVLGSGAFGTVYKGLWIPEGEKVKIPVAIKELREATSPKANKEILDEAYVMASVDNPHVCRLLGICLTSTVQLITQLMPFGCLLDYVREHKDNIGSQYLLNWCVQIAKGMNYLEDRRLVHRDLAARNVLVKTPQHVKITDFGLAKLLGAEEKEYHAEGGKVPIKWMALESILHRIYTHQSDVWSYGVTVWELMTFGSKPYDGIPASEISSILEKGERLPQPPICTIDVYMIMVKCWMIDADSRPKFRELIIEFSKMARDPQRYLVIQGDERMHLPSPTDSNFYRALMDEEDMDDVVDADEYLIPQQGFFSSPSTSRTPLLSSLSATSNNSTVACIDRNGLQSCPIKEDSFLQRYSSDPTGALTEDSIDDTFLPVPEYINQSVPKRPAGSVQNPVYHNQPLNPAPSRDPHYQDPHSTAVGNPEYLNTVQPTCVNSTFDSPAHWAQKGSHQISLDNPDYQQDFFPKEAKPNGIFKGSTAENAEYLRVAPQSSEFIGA
Assay [2] relates to A-431. Kind of assay: Antiproliferative activity against human A431 cells expressing wild type EGFR after 72 hrs by MTT assay. The conditions noted are these: A-431, 72 h.
In assay [3] the target is Epidermal growth factor receptor (Homo sapiens, UniProt P00533, L858R). Kind of assay: Inhibition of EGFR L858R mutant (unknown origin) using Tyr 4 peptide as substrate after 1.5 hrs by FRET based Z'-lyte assay. It is filed as protein assay.
Epidermal growth factor receptor (Homo sapiens, UniProt P00533, L858R), sequence (P00533 25-1210 L858R limits assumed): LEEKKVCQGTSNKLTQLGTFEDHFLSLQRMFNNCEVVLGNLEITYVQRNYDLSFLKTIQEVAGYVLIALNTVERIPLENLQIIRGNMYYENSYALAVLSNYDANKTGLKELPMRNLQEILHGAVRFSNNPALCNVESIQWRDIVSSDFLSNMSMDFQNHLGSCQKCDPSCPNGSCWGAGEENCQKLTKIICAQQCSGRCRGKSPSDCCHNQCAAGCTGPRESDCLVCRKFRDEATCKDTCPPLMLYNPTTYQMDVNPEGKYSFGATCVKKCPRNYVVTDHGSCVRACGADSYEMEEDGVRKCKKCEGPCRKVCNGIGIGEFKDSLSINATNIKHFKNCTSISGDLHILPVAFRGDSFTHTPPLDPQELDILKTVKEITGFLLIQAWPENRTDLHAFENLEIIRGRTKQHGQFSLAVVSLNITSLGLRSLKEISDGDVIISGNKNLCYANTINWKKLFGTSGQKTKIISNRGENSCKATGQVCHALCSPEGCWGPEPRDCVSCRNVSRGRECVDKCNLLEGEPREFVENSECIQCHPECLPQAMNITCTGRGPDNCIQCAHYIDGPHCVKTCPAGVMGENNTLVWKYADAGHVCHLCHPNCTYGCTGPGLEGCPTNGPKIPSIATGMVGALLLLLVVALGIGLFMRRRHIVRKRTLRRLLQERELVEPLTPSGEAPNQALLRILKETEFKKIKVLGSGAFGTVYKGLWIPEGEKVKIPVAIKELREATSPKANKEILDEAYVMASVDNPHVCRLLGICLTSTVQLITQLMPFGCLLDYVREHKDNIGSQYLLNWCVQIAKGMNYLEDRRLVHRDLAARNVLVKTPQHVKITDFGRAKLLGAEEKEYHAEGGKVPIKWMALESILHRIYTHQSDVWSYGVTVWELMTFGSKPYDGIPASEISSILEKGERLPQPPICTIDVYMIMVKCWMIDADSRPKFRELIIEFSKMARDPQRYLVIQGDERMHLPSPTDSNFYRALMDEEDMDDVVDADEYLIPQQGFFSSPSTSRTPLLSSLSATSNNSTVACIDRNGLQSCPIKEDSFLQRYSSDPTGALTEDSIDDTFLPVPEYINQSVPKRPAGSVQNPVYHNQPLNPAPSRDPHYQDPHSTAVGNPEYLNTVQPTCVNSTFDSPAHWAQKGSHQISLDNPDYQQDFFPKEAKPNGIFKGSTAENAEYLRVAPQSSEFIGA
The test system of assay [4] is A549. Kind of assay: Antiproliferative activity against wild type EGFR/k-Ras dependent human A549 cells after 72 hrs by MTT assay. Particulars: A549, 72 h.
Assay [5] in a line: Antiproliferative activity against human HCC827 cells expressing EGFR E746_A750 deletion mutant after 72 hrs by MTT assay. The conditions noted are these: HCC827, 72 h.
Assay [6] deals with NCI-H1975. Kind of assay: Antiproliferative activity against human NCI-H1975 cells expressing EGFR L858R/T790M mutant after 72 hrs by MTT assay. The conditions noted are these: NCI-H1975, 72 h.
The target of assay [7] is Epidermal growth factor receptor (Homo sapiens, UniProt P00533, L858R/T790M). Kind of assay: Inhibition of EGFR L858R/T790M mutant (unknown origin) using Tyr 4 peptide as substrate after 1.5 hrs by FRET based Z'-lyte assay. It is filed as protein assay.
Epidermal growth factor receptor (Homo sapiens, UniProt P00533, L858R/T790M), sequence (P00533 25-1210 T790M/L858R limits assumed): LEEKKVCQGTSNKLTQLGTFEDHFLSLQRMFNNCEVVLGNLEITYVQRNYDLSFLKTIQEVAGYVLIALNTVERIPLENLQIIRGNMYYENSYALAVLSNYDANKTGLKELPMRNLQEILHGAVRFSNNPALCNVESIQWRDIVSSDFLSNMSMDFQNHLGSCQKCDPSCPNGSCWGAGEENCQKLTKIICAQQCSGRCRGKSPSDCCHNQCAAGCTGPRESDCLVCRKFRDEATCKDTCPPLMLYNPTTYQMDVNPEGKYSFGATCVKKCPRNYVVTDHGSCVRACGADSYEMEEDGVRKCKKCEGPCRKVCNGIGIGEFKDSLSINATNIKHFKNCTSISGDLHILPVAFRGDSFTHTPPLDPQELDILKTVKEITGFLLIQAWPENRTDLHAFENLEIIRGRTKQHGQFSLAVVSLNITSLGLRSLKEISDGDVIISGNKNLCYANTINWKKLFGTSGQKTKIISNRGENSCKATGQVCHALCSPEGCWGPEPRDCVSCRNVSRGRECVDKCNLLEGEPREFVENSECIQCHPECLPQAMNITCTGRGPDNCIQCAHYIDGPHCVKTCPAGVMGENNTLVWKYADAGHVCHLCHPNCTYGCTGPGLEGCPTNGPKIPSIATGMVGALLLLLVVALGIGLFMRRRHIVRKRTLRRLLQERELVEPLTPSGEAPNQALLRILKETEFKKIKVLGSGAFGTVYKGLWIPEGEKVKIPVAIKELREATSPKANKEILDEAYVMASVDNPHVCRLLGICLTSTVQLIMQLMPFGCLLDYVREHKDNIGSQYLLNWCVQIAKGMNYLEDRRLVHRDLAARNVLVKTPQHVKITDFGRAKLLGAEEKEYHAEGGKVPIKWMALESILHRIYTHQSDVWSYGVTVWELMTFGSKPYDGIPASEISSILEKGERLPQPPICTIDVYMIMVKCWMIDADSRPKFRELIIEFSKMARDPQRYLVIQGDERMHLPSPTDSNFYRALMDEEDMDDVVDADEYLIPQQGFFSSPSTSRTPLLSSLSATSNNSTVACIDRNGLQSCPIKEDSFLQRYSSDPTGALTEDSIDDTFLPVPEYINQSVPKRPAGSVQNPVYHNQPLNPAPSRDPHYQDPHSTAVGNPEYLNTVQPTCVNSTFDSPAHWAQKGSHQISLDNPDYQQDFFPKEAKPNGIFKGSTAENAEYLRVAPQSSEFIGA
Assay [8] in a line: Antiproliferative activity against human 16HBE cells expressing wild type EGFR after 72 hrs by MTT assay. The conditions noted are these: 16HBE14o-.
The test system of assay [9] is NCI-H1975. Kind of assay: Induction of nitric oxide production in human NCI-H1975 cells expressing EGFR L858R/T790M mutant at 100 uM after 72 hrs by Griess assay. It is filed as functional, cell-based.
For assay [10], the target named is T1, Epidermal growth factor receptor. Kind of assay: Inhibition of EGFR phosphorylation in human NCI-H1975 cells at 0.01 to 1 uM after 6 hrs by Western blotting analysis. It is filed as cell-based.
The target is the same in assay [11]. Kind of assay: Inhibition of EGFR phosphorylation in human NCI-H1975 cells assessed as reduction of phosphorylated Akt level at 1 uM after 6 hrs by Western blotting analysis. It is filed as cell-based.
The target is the same in assay [12]. Kind of assay: Inhibition of EGFR phosphorylation in human NCI-H1975 cells assessed as reduction of phosphorylated Erk level at 1 uM after 6 hrs by Western blotting analysis. It is filed as cell-based.
Assay [13] has as its system 16HBE14o-. Kind of assay: Induction of nitric oxide production in human 16HBE cells expressing wild type EGFR at 100 uM after 72 hrs by Griess assay. It is filed as functional, cell-based.
Assay [14] in a line: Ratio of IC50 for human HCC827 cells expressing EGFR E746_A750 deletion mutant to IC50 for human 16HBE cells.
In assay [15] the test system is NCI-H1975. Kind of assay: Ratio of IC50 for human NCI-H1975 cells expressing EGFR L858R/T790M mutant to IC50 for human 16HBE cells.
In assay [16] the test system is NCI-H1975. Kind of assay: Antiproliferative activity against human NCI-H1975 cells expressing EGFR L858R/T790M mutant at 1 to 20 uM after 24 hrs by MTT assay in presence of hemoglobin. It is filed as functional, cell-based.
In assay [17] the target is T1, Epidermal growth factor receptor. Kind of assay: Inhibition of EGFR phosphorylation in human NCI-H1975 cells after 6 hrs by Western blotting analysis. It is filed as cell-based.

As for `COc1cc(N2CCC(O)CC2)ccc1Nc1ncc(Cl)c(Oc2ccc(COc3no[n+]([O-])c3S(=O)(=O)c3ccccc3)cc2)n1`, the IC50 in [1] is 3150 nM; in assay [2], 357 nM; in assay [3], 3220 nM; in assay [4], 4250 nM; in assay [5], 95 nM; in [6], 148 nM. Also, the values for the IC50 in [7] and in assay [8] were 250 nM and 2190 nM, respectively.

For the compound `COc1cc(N2CCN(C)CC2)ccc1Nc1ncc(Cl)c(Oc2ccc(CCCOc3no[n+]([O-])c3S(=O)(=O)c3ccccc3)cc2)n1`, the IC50 was 2280 nM in [1]; 551 nM in assay [2]; greater than 10000 nM in assay [3]; 2840 nM in assay [4]; 4820 nM in [5]; 315 nM in assay [6]. In addition, the IC50 in assay [7] came out at 780 nM; in [8] it was 3520 nM. Further, the outcome in assay [9] was Active.

As for `C=CC(=O)Nc1cccc(Oc2nc(Nc3ccc(N4CCN(C)CC4)cc3OC)ncc2Cl)c1`, the inhibition result in [10], in assay [11] and in [12] was “Active” throughout.

Consider `COc1cc(N2CCC(O)CC2)ccc1Nc1ncc(Cl)c(Oc2cccc(COc3no[n+]([O-])c3S(=O)(=O)c3ccccc3)c2)n1`, for which the IC50 in assay [1] was 240 nM; in assay [2], 1200 nM; in assay [3] it was 490 nM; in assay [4], 3900 nM; in [5], 36 nM; in [6] it was 68 nM. The half-inhibitory concentration (IC50) is 68 nM in assay [7] and 3250 nM in assay [8]. Further, the result in [13] and in assay [9] was Active. For the same compound, the “Ratio IC50” value in assay [14] and in assay [15] was 35 in each case.

Regarding `COc1cc(N2CCN(C)CC2)ccc1Nc1ncc(Cl)c(Oc2ccc(CCOc3no[n+]([O-])c3S(=O)(=O)c3ccccc3)cc2)n1`, the IC50 was 2940 nM in assay [1]; 479 nM in assay [2]; 5360 nM in assay [3]; 3750 nM in [4]; 1930 nM in assay [5]; 372 nM in assay [6]. In addition, the IC50 in assay [7] came out at 960 nM; in assay [8], 2420 nM. The result in assay [9] was Active.

Turning to `COc1cc(N2CCN(C)CC2)ccc1Nc1ncc(Cl)c(Oc2cccc(COc3no[n+]([O-])c3S(=O)(=O)c3ccccc3)c2)n1`, the IC50 was 130 nM in assay [1]; 1360 nM in assay [2]; 150 nM in [3]; 4190 nM in assay [4]; 63 nM in assay [5]; 52 nM in assay [6]. The figures for the IC50 in [7] and in assay [8] were 19 nM and 2210 nM, respectively. The “Ratio IC50” value in assay [14] and in assay [15] was 35 throughout.

Regarding `C=CC(=O)N1CCN(c2ccc(Nc3ncc(Cl)c(Oc4cccc(COc5no[n+]([O-])c5S(=O)(=O)c5ccccc5)c4)n3)c(OC)c2)CC1`, the IC50 in assay [1] was 350 nM; in [2], 348 nM; in assay [3], 370 nM; in [4], 1720 nM; in assay [5] it was 22 nM; in assay [6] it was 55 nM. Moreover, the values for the IC50 in [7] and in [8] were 45 nM and 1930 nM, respectively. For the same compound, the outcome in assay [16], in assay [13] and in assay [9] was Active. In addition, the “Ratio IC50” value in [14] and in assay [15] was 35 in each case. The inhibition result in [10], in assay [11] and in [12] was “Active” each time. Moreover, in assay [17], the inhibition result is “Dose-dependent effect”.

As to `COc1cc2ncnc(Nc3ccc(F)c(Cl)c3)c2cc1OCCCN1CCOCC1`, the outcome in assay [13] and in assay [9] was Active.

Consider `COc1cc(N2CCN(C)CC2)ccc1Nc1ncc(Cl)c(Oc2ccc(COc3no[n+]([O-])c3S(=O)(=O)c3ccccc3)cc2)n1`, for which the IC50 stood at 1090 nM in [1]; 2200 nM in assay [2]; 1530 nM in [3]; 3660 nM in assay [4]; 863 nM in [5]; 221 nM in assay [6]. Also, the figures for the IC50 in assay [7] and in assay [8] were 140 nM and 2300 nM, respectively.

In the case of `C=CC(=O)N1CCN(c2ccc(Nc3ncc(Cl)c(Oc4ccc(COc5no[n+]([O-])c5S(=O)(=O)c5ccccc5)cc4)n3)c(OC)c2)CC1`, the IC50 is greater than 10000 nM in assay [1]; 4660 nM in assay [2]; greater than 10000 nM in assay [3]; 3900 nM in assay [4]; 4900 nM in assay [5]; 154 nM in assay [6]. For the same compound, the IC50 in assay [7] worked out at 410 nM; in assay [8], 3370 nM.
